# Patent US20220031800A1, “PEPTIDES FOR TREATING NON-EXUDATIVE MACULAR DEGENERATION AND OTHER DISORDERS OF THE EYE” (Allegro Pharmaceuticals, LLC, priority 2019, published 2022)
# Square brackets hold non-standard residues; d marks the D form. Peptide text beside a SMILES is read from it. Cya = N[C@@H](CS(=O)(=O)O)C(=O)O
# Legend:
# [1] = test system: human retinal Müller cells (MIO-M1); experiment: Reactive oxygen species level in human Müller cells (MIO-M1); type: cell-based; settings: 1× concentration (clinical dose), 24 hours
# Experimental: Purpose: To determine the effects of risuteganib and anti-VEGF drugs on reactive oxygen species (ROS) levels in cultured human retinal Müller cells (MIO-M1). Elevated ROS levels can disrupt normal cellular functions, leading to reduced cell health and possible cell death.
# Methods: The immortalized human retinal Müller cell line (MIO-M1) was obtained from the Department of Cell Biology of the University College, London. Cells were cultured in Dulbecco's Modified Eagle's Medium (DMEM) and plated in 24-well plates for 24 hours before treatment with 1× concentration of 1 mg/50 μL ALG-1001, ranibizumab, bevacizumab, or aflibercept. Dosage was based on clinical dose of each compound. The experiments were repeated 3 times with 6 replicates each. After 24 hours drug treatment, ROS level was measured using the fluorescent dye 2′,7′-dichlorodihydrofluorescein diacetate. The signals were read using the Biotek Synergy HT plate reader with EX filter in 482 nm and EM filter in 520 nm. Results were normalized to untreated control as 100%. Statistical analysis was performed in GraphPad Prism software program.
# [2] = test system: study eye of subjects with intermediate non-exudative AMD; experiment: Microperimetry (mean retinal sensitivity, number of loci summed); type: in vivo, human
# [3] = test system: study eye of subjects with intermediate non-exudative AMD; experiment: Low-luminance visual acuity; type: in vivo, human
# Experimental: Numerous study assessments were conducted at various time points throughout the study. Included among these study assessments were; refractive eye examinations, determinations of BCVA AND low-luminance BCVA, Lanthony D-15 color vision test, measurement of intraocular pressure (IOP), Indirect ophthalmoscopy/dilated fundus examinations and spectral-domain optical coherence tomography (SD-OCT). Also, blood and saliva samples were obtained from each subject for genetic analysis. The above-listed study assessments were performed at the time points indicated in Table 1, below: Table 10, below, summarizes low-luminescence visual acuity in the study subjects.
# [4] = test system: study eye of subjects with intermediate non-exudative AMD; experiment: Humphrey visual field assessment (mean deviation, pattern standard deviation); type: in vivo, human
# Excerpt: Twenty-five subjects were assigned to Group 1 and fifteen (15) subjects were assigned to Group 2.
# OIR mouse retina = experiment: RNA-seq gene expression in OIR mouse retina after intravitreal injection; type: in vivo; settings: 10 μg/1 μL single intravitreal injection
# Excerpt: Purpose: This study used RNA-seq to identify the genes regulated in the mouse retina following risuteganib intravitreal injection. Analysis of the specific genes regulated by risuteganib enables identification of biological processes and pathways modulated by the oligopeptide. […] Risuteganib causes reduced leukocyte attachment, reduced leukocyte trans-endothelial migration and reduced expression of complement 3 receptor. Methods: OIR mouse pups received 5 days of hyperoxia (75% O2) to obliterate developing retinal vessels. Following their return to room air, retinal neovascularization develops due to an imbalance in oxygen supply and demand. At the time of return to room air, both eyes of OIR pups received either vehicle injection or a single intravitreal injection of risuteganib solution at concentration of 10 μg/1 μL. A separate group of pups raised at room air served as control and received either vehicle or risuteganib solution injection consistent with the OIR mouse group. 5 days after injection, at the height of retinal neovascularization in OIR mice, all mice are sacrificed, retina tissue extracted for RNA isolation and RNA-seq. The generated reads were then aligned to the mouse reference genome/transcriptome and gene expression quantified for differential expression analysis and fold change calculation. The list of regulated genes was then submitted to identify biological processes and pathways that are regulated after risuteganib exposure compared to vehicle control in OIR mice or control mice, and in OIR retina compared to control retina that both received vehicle injections.
# [5] = Week 12, Group 2 (1 mg IVT day 1 + wk 16)
# [6] = Week 12 change, Group 2 (1 mg IVT day 1 + wk 16)
# [7] = Week 32, Group 1 crossover (sham day 1, 1 mg IVT wk 16)
# [8] = Week 32, Group 2 (1 mg IVT day 1 + wk 16)
# [9] = Week 32 change, Group 1 crossover (sham day 1, 1 mg IVT wk 16)
# [10] = Week 32 change, Group 2 (1 mg IVT day 1 + wk 16)
# [11] = Week 12, risuteganib group (1 mg IVT day 1 + wk 16)
# [12] = Week 12 change, risuteganib group (1 mg IVT day 1 + wk 16)
# [13] = Week 32, risuteganib group (1 mg IVT day 1 + wk 16)
# [14] = Week 32, sham group after crossover to 1 risuteganib injection (wk 16)
# [15] = Week 32 change, risuteganib group (1 mg IVT day 1 + wk 16)
# [16] = Week 32 change, sham group after crossover to 1 risuteganib injection (wk 16)
structure (smiles),measurement,setting,value
"C[C@@H](O)[C@H](NC(=O)[C@H](CS(=O)(=O)O)NC(=O)CNC(=O)[C@H](CCCNC(=N)N)NC(=O)CN)C(=O)N1CCC[C@H]1C(=O)O [risuteganib, Glycyl-L-arginylglycyl-3-sulfo-L-alanyl-L-threonyl-L-proline] (H-GRG[Cya]TP-OH)",Change in ROS level compared to untreated control,[1],−19%
same,"Microperimetry mean sensitivity, mean",[2]; [5],7.52 dB
same,"Microperimetry mean sensitivity, median",[2]; [5],7.50 dB
same,"Microperimetry number of loci summed (reduced sensitivity), mean",[2]; [5],84.9
same,"Microperimetry number of loci summed (reduced sensitivity), median",[2]; [5],86.5
same,"Microperimetry mean sensitivity change, median",[2]; [6],−1.50 dB
same,"Microperimetry mean sensitivity, mean",[2]; [7],11.44 dB
same,"Microperimetry mean sensitivity, median",[2]; [7],13.70 dB
same,"Microperimetry number of loci summed (reduced sensitivity), mean",[2]; [7],67.6
same,"Microperimetry number of loci summed (reduced sensitivity), median",[2]; [7],60.0
same,"Microperimetry mean sensitivity, mean",[2]; [8],8.25 dB
same,"Microperimetry mean sensitivity, median",[2]; [8],8.50 dB
same,"Microperimetry number of loci summed (reduced sensitivity), median",[2]; [8],79.5
same,"Microperimetry mean sensitivity change, median",[2]; [9],−0.20 dB
same,"Microperimetry number of loci summed change, mean",[2]; [9],7.9
same,"Microperimetry mean sensitivity change, median",[2]; [10],−0.40 dB
same,"Microperimetry number of loci summed change, mean",[2]; [10],1.0
same,Increase (improvement) in mean retinal sensitivity,[2]; risuteganib responders at Week 32 (FIG. 5),2.2 dB
same,"Low-luminance visual acuity letters read, mean",[3]; [5],46.4 letters read
same,"Low-luminance visual acuity letters read, median",[3]; [5],48.0 letters read
same,"Low-luminance visual acuity change in letters read, median",[3]; [6],−1.0 letters read
same,"Low-luminance visual acuity letters read, mean",[3]; [7],50.7 letters read
same,"Low-luminance visual acuity letters read, median",[3]; [7],57.0 letters read
same,"Low-luminance visual acuity letters read, mean",[3]; [8],49.4 letters read
same,"Low-luminance visual acuity letters read, median",[3]; [8],51.0 letters read
same,"Low-luminance visual acuity change in letters read, mean",[3]; [9],2.6 letters read
same,"Low-luminance visual acuity change in letters read, median",[3]; [9],3.0 letters read
same,"Low-luminance visual acuity change in letters read, mean",[3]; [10],2.0 letters read
same,"Low-luminance visual acuity change in letters read, median",[3]; [10],0.0 letters read
same,"Humphrey visual field pattern standard deviation, mean",[4]; [5],3.350 dB
same,"Humphrey visual field pattern standard deviation, median",[4]; [5],1.630 dB
same,"Humphrey visual field mean deviation, mean",[4]; [11],−5.502 dB
same,"Humphrey visual field mean deviation, median",[4]; [11],−3.500 dB
same,"Humphrey visual field pattern standard deviation change, median",[4]; [6],−0.090 dB
same,"Humphrey visual field mean deviation change, mean",[4]; [12],0.302 dB
same,"Humphrey visual field mean deviation change, median",[4]; [12],0.100 dB
same,"Humphrey visual field pattern standard deviation, mean",[4]; [7],2.790 dB
same,"Humphrey visual field pattern standard deviation, median",[4]; [7],2.410 dB
same,"Humphrey visual field pattern standard deviation, mean",[4]; [8],3.113 dB
same,"Humphrey visual field pattern standard deviation, median",[4]; [8],2.050 dB
same,"Humphrey visual field mean deviation, mean",[4]; [13],−5.211 dB
same,"Humphrey visual field mean deviation, median",[4]; [13],−3.470 dB
same,"Humphrey visual field mean deviation, mean",[4]; [14],−4.055 dB
same,"Humphrey visual field mean deviation, median",[4]; [14],−2.260 dB
same,"Humphrey visual field pattern standard deviation change, mean",[4]; [9],0.469 dB
same,"Humphrey visual field pattern standard deviation change, median",[4]; [9],0.360 dB
same,"Humphrey visual field pattern standard deviation change, mean",[4]; [10],0.115 dB
same,"Humphrey visual field pattern standard deviation change, median",[4]; [10],0.045 dB
same,"Humphrey visual field mean deviation change, mean",[4]; [15],0.191 dB
same,"Humphrey visual field mean deviation change, median",[4]; [15],−0.040 dB
same,"Humphrey visual field mean deviation change, mean",[4]; [16],0.158 dB
same,"Humphrey visual field mean deviation change, median",[4]; [16],−0.070 dB
same,Number of genes regulated in the OIR retina with statistical significance,"OIR mouse retina; 5 days after injection, vs vehicle",around 600 genes
same,"Expression of integrin subunits α5, α6, αM, β1, β2, and β5","OIR mouse retina; OIR retina, 5 days after injection",down regulated
same,Number of biological pathways down-regulated,"OIR mouse retina; OIR retina, 10 of them up-regulated in OIR retina",11
